ChEMBL document CHEMBL3885861, “Open TG-GATES”

Species on record: Rattus norvegicus
Assay: Open TG-GATES - Regimen: Single
Format: toxicity, organism-based, Sprague-Dawley
Set-up: regimen Single, gender Male, age 6 weeks
Settings: in vivo, po, 10 mg/kg, route gavage, dose level Low; for APTT / Bas / Eos / Fbg / Hb / Ht / Lym / MCH / MCHC / MCV / Mono / Neu / PT / Plat / RBC / Ret / WBC: tissue Blood; for KIDNEY_L / KIDNEY_R / KIDNEY_TOTAL: tissue Kidney; for LIVER: tissue Liver; for A/G / ALP / ALT / AST / BUN / CRE / Ca / Cl / DBIL / GLC / IP / K / LDH / Na / PL / RALB / TBIL / TC / TG / TP / gamma-GTP: tissue Plasma

CN(C)CCN(Cc1cccs1)c1ccccn1
TERMINAL_BW (3 h): 185 g | APTT (3 h): 20.7 s | Bas (3 h): 0% | Eos (3 h): 0.6% | Fbg (3 h): 285 mg/dL | Hb (3 h): 13.4 g/dL | Ht (3 h): 40.7% | Lym (3 h): 79.6% | MCH (3 h): 21.2 pg | MCHC (3 h): 32.9% | MCV (3 h): 64.6 fL | Mono (3 h): 2% | Neu (3 h): 17.2% | PT (3 h): 16.4 s | Plat (3 h): 111.1 x10_4/uL | RBC (3 h): 630.4 x10_4/ul | Ret (3 h): 7.5% | WBC (3 h): 82 x10_2/uL | KIDNEY_L (3 h): 0.8 g | KIDNEY_R (3 h): 0.8 g | KIDNEY_TOTAL (3 h): 1.6 g | LIVER (3 h): 8.1 g | A/G (3 h): 1.3 | ALP (3 h): 1664.4 IU/L | ALT (3 h): 41.2 IU/L | AST (3 h): 77.8 IU/L | BUN (3 h): 13.6 mg/dL | CRE (3 h): 0.2 mg/dL | Ca (3 h): 10.5 mg/dL | Cl (3 h): 107.6 meq/L | DBIL (3 h): 0.002 mg/dL | GLC (3 h): 171.6 mg/dL | IP (3 h): 8 mg/dL | K (3 h): 4.2 meq/L | LDH (3 h): 205.8 IU/L | Na (3 h): 144 meq/L | PL (3 h): 125.4 mg/dL | RALB (3 h): 3 g/dL | TBIL (3 h): 0.014 mg/dL | TC (3 h): 67.8 mg/dL | TG (3 h): 43.2 mg/dL | TP (3 h): 5.3 g/dL | gamma-GTP (3 h): 1.2 IU/L | TERMINAL_BW (6 h): 188.4 g | APTT (6 h): 20.6 s | Bas (6 h): 0% | Eos (6 h): 0.6% | Fbg (6 h): 294.6 mg/dL | Hb (6 h): 12.7 g/dL | Ht (6 h): 39% | Lym (6 h): 77.8% | MCH (6 h): 21.3 pg | MCHC (6 h): 32.6% | MCV (6 h): 65.3 fL | Mono (6 h): 2.2% | Neu (6 h): 18.6% | PT (6 h): 17.1 s | Plat (6 h): 119.7 x10_4/uL | RBC (6 h): 597.6 x10_4/ul | Ret (6 h): 7.6% | WBC (6 h): 70.2 x10_2/uL | KIDNEY_L (6 h): 0.9 g | KIDNEY_R (6 h): 0.9 g | KIDNEY_TOTAL (6 h): 1.9 g | LIVER (6 h): 8.2 g | A/G (6 h): 1.3 | ALP (6 h): 1485.8 IU/L | ALT (6 h): 37.6 IU/L | AST (6 h): 70.2 IU/L | BUN (6 h): 10.8 mg/dL | CRE (6 h): 0.1 mg/dL | Ca (6 h): 10.3 mg/dL | Cl (6 h): 106.6 meq/L | DBIL (6 h): 0.002 mg/dL | GLC (6 h): 171.6 mg/dL | IP (6 h): 9.6 mg/dL | K (6 h): 4.4 meq/L | LDH (6 h): 202.4 IU/L | Na (6 h): 141.6 meq/L | PL (6 h): 124 mg/dL | RALB (6 h): 2.9 g/dL | TBIL (6 h): 0.016 mg/dL | TC (6 h): 70.6 mg/dL | TG (6 h): 63.6 mg/dL | TP (6 h): 5.3 g/dL | gamma-GTP (6 h): 1 IU/L | TERMINAL_BW (9 h): 182.3 g | APTT (9 h): 20.7 s | Bas (9 h): 0% | Eos (9 h): 0.4% | Fbg (9 h): 314.8 mg/dL | Hb (9 h): 12.9 g/dL | Ht (9 h): 38.8% | Lym (9 h): 77.4% | MCH (9 h): 20.8 pg | MCHC (9 h): 33.3% | MCV (9 h): 62.5 fL | Mono (9 h): 2.2% | Neu (9 h): 19.4% | PT (9 h): 15.9 s | Plat (9 h): 114.9 x10_4/uL | RBC (9 h): 621.8 x10_4/ul | Ret (9 h): 7.4% | WBC (9 h): 62 x10_2/uL | KIDNEY_L (9 h): 0.8 g | KIDNEY_R (9 h): 0.9 g | KIDNEY_TOTAL (9 h): 1.7 g | LIVER (9 h): 7.8 g | A/G (9 h): 1.2 | ALP (9 h): 1429.4 IU/L | ALT (9 h): 30.2 IU/L | AST (9 h): 62.8 IU/L | BUN (9 h): 11.2 mg/dL | CRE (9 h): 0.1 mg/dL | Ca (9 h): 10.4 mg/dL | Cl (9 h): 106.4 meq/L | DBIL (9 h): 0 mg/dL | GLC (9 h): 171 mg/dL | IP (9 h): 9.6 mg/dL | K (9 h): 4.2 meq/L | LDH (9 h): 171 IU/L | Na (9 h): 142.4 meq/L | PL (9 h): 129 mg/dL | RALB (9 h): 3 g/dL | TBIL (9 h): 0.018 mg/dL | TC (9 h): 67.2 mg/dL | TG (9 h): 69.2 mg/dL | TP (9 h): 5.4 g/dL | gamma-GTP (9 h): 1 IU/L | TERMINAL_BW (24 h): 197.6 g | APTT (24 h): 19.8 s | Bas (24 h): 0% | Eos (24 h): 0.5% | Fbg (24 h): 282.8 mg/dL | Hb (24 h): 12.7 g/dL | Ht (24 h): 38.4% | Lym (24 h): 80.5% | MCH (24 h): 21.8 pg | MCHC (24 h): 33.1% | MCV (24 h): 65.8 fL | Mono (24 h): 1.8% | Neu (24 h): 16.8% | PT (24 h): 16.6 s | Plat (24 h): 114.6 x10_4/uL | RBC (24 h): 584 x10_4/ul | Ret (24 h): 7.2% | WBC (24 h): 94 x10_2/uL | KIDNEY_L (24 h): 0.9 g | KIDNEY_R (24 h): 0.9 g | KIDNEY_TOTAL (24 h): 1.7 g | LIVER (24 h): 9.3 g | A/G (24 h): 1.2 | ALP (24 h): 1858.2 IU/L | ALT (24 h): 42.2 IU/L | AST (24 h): 69.6 IU/L | BUN (24 h): 16.4 mg/dL | CRE (24 h): 0.2 mg/dL | Ca (24 h): 10.7 mg/dL | Cl (24 h): 107.4 meq/L | DBIL (24 h): 0.002 mg/dL | GLC (24 h): 180.6 mg/dL | IP (24 h): 7.3 mg/dL | K (24 h): 4.3 meq/L | LDH (24 h): 223.2 IU/L | Na (24 h): 142.8 meq/L | PL (24 h): 145.4 mg/dL | RALB (24 h): 2.9 g/dL | TBIL (24 h): 0.008 mg/dL | TC (24 h): 75.2 mg/dL | TG (24 h): 131.8 mg/dL | TP (24 h): 5.3 g/dL | gamma-GTP (24 h): 1 IU/L
